{"source": "paper PMC8588536", "about": "“Iridal-Type Triterpenoids Displaying Human Neutrophil Elastase Inhibition and Anti-Inflammatory Effects from Belamcanda chinensis” (Molecules, 2021)", "key": {"[1]": {"molecular_target": "T1, Human neutrophil elastase (HNE) (Homo sapiens, UniProt P08246)", "T1 construct": "purchased Sigma-Aldrich", "T1 sequence (P08246 30-267)": "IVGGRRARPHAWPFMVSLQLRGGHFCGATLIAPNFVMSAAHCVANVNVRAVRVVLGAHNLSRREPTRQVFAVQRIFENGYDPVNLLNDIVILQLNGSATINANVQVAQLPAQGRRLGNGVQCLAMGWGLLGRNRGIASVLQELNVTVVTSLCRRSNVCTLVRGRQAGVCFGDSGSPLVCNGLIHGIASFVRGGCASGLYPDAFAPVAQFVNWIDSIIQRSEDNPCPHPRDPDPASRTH", "assay": "Fluorescence quenching binding affinity to HNE", "settings": "inhibitor 7.8–31.2 µM; for Kd: read-out: KA (association constant of the complex of enzyme and quencher) (converted); for KSV (Stern-Volmer quenching constant): λEx 260 nm, λEm 280–400 nm", "procedure": "To measure fluorescence from the HNE enzyme, 10 μL of 0.01 unit/mL enzyme solution with 180 μL of Tris-HCl buffer (0.02 mM) was accurately added into the 96-well black immunoplates. Then, 10 μL of incremental concentrations (7.8–31.2 μΜ) of inhibitors were added into each well. All fluorescence spectra were measured from 280 to 400 nm with emission slits regulated to 2.0 nm, and the excitation wavelength was 260 nm. The Stern–Volmer quenching constant (KSV) was calculated using Equation (5). All experiments were conducted in triplicate, and the mean values were calculated. (5) […]=1+KSV[Q], where F0 and F are the fluorescence intensities in the absence and presence of quencher (Q). KSV is the Stern–Volmer quenching constant [LM^−1]. For static quenching, the correlation between the fluorescence intensity and the concentration of quencher for the series of reactions can be estimated by Equation (6). (6) log[(F0−F)/F]=logKA+nlog[Q]f.\nF0 and F are the fluorescence intensities in the absence and presence of inhibitor; KA is the binding constant; n is the number of binding sites of the enzyme; Qf is the concentration of inhibitor."}, "[2]": {"tested_on": "NF-κB p65 in LPS-stimulated RAW264.7 cells", "assay": "NF-κB p65 nuclear translocation, Western blot of nuclear and cytoplasmic fractions", "assay_type": "cell-based, mouse", "settings": "1 and 3 µg/mL, n = 3, p < 0.05", "procedure": "RAW264.7 cells were homogenized in a hypotonic lysis buffer and centrifuged at 142× g for 5 min at 4 °C. The resulting pellets and supernatants were used for the isolation of nuclear and cytosoplasmic fraction, respectively. The pellets were incubated on ice for 5 min with a nuclear isolation buffer and were spun at 142× g using Eppendorf centrifuge 5424 R at 4 °C for 5 min. The resulting pellets were incubated on ice for 30 min with 2% Triton nuclear isolation buffer and were spun at 12,448× g at 4 °C for 15 min. For the cytosolic fraction, the resulting supernatants in the hypotonic lysis buffer were transferred to a new 1.5 mL tube and spun at 15,401× g for 15 min at 4 °C. The resulting supernatants were centrifuged at 100,000× g at 4 °C for 60 min in an ultracentrifuge (TLA 100.3; Optima MAX-XP, Beckman Coulter, Inc., Brea, CA, USA). The proteins of nuclear and cytosolic fractions were separated on 8% SDS-PAGE gel and blotted onto polyvinylidene difluoride membranes. Equal amounts of 35 µg were analyzed by Western blotting. Briefly, the membranes were blocked with 5% fat-free dry milk and then incubated with the anti-NF-κB p65 polyclonal antibody (1:1000 dilution; Cell Signaling Technology), and anti-β-actin monoclonal antibodies (1:5000 dilution). […]"}}, "data": [{"smiles": "CC(C)=CCC/C(C)=C/C[C@@H](O)/C(C)=C/CC[C@@]1(C)[C@H](CCCO)/C(=C(/C)C=O)CC[C@]1(C)O", "note": "[Compound 1, isoiridogermanal]", "values": [{"measurement": "n (number of binding sites of the enzyme)", "setting": "[1]", "value": 1.0039}, {"measurement": "Kd", "setting": "[1]", "value": 24.3, "unit": "µM"}, {"measurement": "KSV (Stern-Volmer quenching constant)", "setting": "[1]", "value": 41660, "unit": "L/mol"}]}, {"smiles": "CC(C)=CCCC(C)=CCC(O)C(C)=CCCC1(C)C(CCCO)C(=C(C)C=O)CCC1(C)O", "note": "(stereo not shown) [Compound 2, iridobelamal A]", "values": [{"measurement": "n (number of binding sites of the enzyme)", "setting": "[1]", "value": 0.9734}, {"measurement": "Kd", "setting": "[1]", "value": 50.3, "unit": "µM"}, {"measurement": "KSV (Stern-Volmer quenching constant)", "setting": "[1]", "value": 18160, "unit": "L/mol"}, {"measurement": "nuclear translocation of p65 protein (Western blot)", "setting": "[2]", "value": "inhibited"}]}]}
